These are literature values, as cited in US20250090695A1, “IMMUNOSTIMULANT-CYTOTOXIC CONJUGATE COMPOSITION AND METHODS FOR CANCER TREATMENT” (The Research Foundation for the State University of New York, priority 2022, published 2025).

The conditions of data set [1]: metastatic setting; cited from earlier work.
The conditions of data set [2]: patients; versus 11.2 months with placebo; cited from earlier work.

As to `CNC(=O)c1ccc(N2C(=S)N(c3ccc(C#N)c(C(F)(F)F)c3)C(=O)C2(C)C)cc1F` [enzalutamide], in data set [1], the Overall survival extension is recorded as 4-5 months.

Take Radium-223: the Overall survival in data set [2] was 14 months.
